Experimental data from US5631230A, “Receptor selective analogues of cholecystokinin-8” (priority 1994, dated 1997).
Non-standard residues stand in square brackets, D forms with d. Residues, ends and D or L forms follow the SMILES beside them. *: point of attachment. sY = N[C@@H](Cc1ccc(OS(=O)(=O)O)cc1)C(=O)O; X1 = O=C(O)C[C@H](NS(=O)(=O)O)C(=O)*; NMeNle = CCCC[C@H](NC)C(=O)O; Nle = CCCC[C@H](N)C(=O)O

Columns and labels:
[1] = target: T1, [^125 I] CCK-8 binding sites (CCK receptor), Rat Brain (Rattus norvegicus, UniProt P30553); experiment: Inhibition of [125I] CCK-8 binding, rat brain; settings: for Ratio Pancreas/Brain Rat: IC50 pancreas / IC50 brain
T1 construct: from tissue; host or cells: rat brain
T1 sequence (P30553 1-452): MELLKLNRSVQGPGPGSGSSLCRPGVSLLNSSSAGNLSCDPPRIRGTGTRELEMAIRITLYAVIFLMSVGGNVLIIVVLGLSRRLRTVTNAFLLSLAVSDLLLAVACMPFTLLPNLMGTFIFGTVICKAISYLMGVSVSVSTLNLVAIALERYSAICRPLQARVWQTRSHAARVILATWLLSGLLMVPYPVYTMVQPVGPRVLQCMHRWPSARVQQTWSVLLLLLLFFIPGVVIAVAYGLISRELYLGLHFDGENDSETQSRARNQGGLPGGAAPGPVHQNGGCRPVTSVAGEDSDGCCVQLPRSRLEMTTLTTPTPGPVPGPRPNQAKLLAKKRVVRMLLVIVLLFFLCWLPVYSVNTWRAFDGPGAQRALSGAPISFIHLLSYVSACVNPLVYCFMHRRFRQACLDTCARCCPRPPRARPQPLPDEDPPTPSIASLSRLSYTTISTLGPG

[2] = target: T2, [^125 I] CCK-8 binding sites (CCK receptor), Rat Pancreas (Rattus norvegicus, UniProt P30551); experiment: Inhibition of [125I] CCK-8 binding, rat pancreas
T2 construct: from tissue; host or cells: rat pancreas
T2 sequence (P30551 1-444): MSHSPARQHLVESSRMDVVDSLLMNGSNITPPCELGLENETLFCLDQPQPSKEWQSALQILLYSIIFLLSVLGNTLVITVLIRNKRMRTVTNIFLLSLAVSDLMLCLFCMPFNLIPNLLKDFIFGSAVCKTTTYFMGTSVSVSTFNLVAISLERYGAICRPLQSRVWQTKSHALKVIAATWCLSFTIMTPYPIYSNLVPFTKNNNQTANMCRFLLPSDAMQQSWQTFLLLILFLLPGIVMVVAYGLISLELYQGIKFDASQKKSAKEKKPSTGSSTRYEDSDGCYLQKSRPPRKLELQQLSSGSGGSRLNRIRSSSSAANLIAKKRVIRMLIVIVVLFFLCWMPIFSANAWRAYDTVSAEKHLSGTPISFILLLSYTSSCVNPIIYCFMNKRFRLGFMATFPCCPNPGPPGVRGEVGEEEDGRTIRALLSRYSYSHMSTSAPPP

[3] = tested on: [^125 I] CCK-8 binding sites (CCK receptor), Guinea Pig Brain; experiment: Inhibition of [125I] CCK-8 binding, guinea pig brain; settings: for Ratio Pancreas/Brain (Guinea Pig): value in brackets, IC50 pancreas / IC50 brain; for IC50: inhibition of [125I] CCK-8 binding, guinea pig brain
[4] = target: T3, [^125 I] CCK-8 binding sites (CCK receptor), Guinea Pig Pancreas (Cavia porcellus, UniProt Q63931); experiment: Inhibition of [125I] CCK-8 binding, guinea pig pancreas; settings: read-out: Guinea Pig Pancreas IV50
T3 construct: from tissue; host or cells: guinea pig pancreas
T3 sequence (Q63931 1-430): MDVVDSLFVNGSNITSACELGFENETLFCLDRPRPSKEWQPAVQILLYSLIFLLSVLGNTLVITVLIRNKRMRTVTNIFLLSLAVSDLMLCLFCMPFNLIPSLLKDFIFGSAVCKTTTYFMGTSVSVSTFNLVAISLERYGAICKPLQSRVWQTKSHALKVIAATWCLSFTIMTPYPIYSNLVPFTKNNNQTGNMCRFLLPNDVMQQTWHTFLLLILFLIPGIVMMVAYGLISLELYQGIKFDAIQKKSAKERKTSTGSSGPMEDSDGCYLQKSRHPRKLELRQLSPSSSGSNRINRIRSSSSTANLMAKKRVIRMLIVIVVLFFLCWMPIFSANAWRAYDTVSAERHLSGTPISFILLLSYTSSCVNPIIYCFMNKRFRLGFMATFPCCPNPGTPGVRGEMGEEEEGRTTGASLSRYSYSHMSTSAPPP

| Compound | IC50 [1] [nM] | Ratio Pancreas/Brain Rat [1] | IC50 [2] [nM] | Ratio Pancreas/Brain (Guinea Pig) [3] | IC50 [3] [nM] | IC50 [4] [µM] |
| --- | --- | --- | --- | --- | --- | --- |
| CCCC[C@H](NC(=O)[C@H](Cc1c[nH]c2ccccc12)NC(=O)CNC(=O)[C@H](CCCC)N(C)C(=O)[C@H](Cc1ccc(O)cc1)NC(=O)[C@@H](N)CC(=O)O)C(=O)N[C@@H](CC(=O)O)C(=O)N[C@@H](Cc1ccccc1)C(N)=O [Compound 4, H-Asp-Tyr-N-MeNle-Gly-Trp-Nle-Asp-Phe-NH2] | 1.45 | 32.2 | 46.7 | – | – | – |
| CCCC[C@H](NC(=O)[C@H](Cc1c[nH]c2ccccc12)NC(=O)CNC(=O)[C@@H](NC(=O)[C@H](Cc1ccc(O)cc1)NC(=O)[C@@H](N)CC(=O)O)C(C)C)C(=O)N[C@@H](CC(=O)O)C(=O)N[C@@H](Cc1ccccc1)C(N)=O [Compound 6, H-Asp-Tyr-Val-Gly-Trp-Nle-Asp-Phe-NH2] | 0.318 | 33.5 | 10.6 | – | – | – |
| CCCC[C@H](NC(=O)[C@H](Cc1ccc(O)cc1)NC(=O)[C@@H](N)CC(=O)O)C(=O)NCC(=O)N[C@@H](Cc1c[nH]c2ccccc12)C(=O)N(C)[C@@H](CCCC)C(=O)N[C@@H](CC(=O)O)C(=O)N[C@@H](Cc1ccccc1)C(N)=O [Compound 5, H-Asp-Tyr-Nle-Gly-Trp-N-MeNle-AsP-Phe-NH2] | 976 | 0.17 | 170 | – | – | – |
| CSCC[C@H](NC(=O)[C@H](Cc1ccc(OS(=O)(=O)O)cc1)NC(=O)[C@@H](N)CC(=O)O)C(=O)NCC(=O)N[C@@H](Cc1c[nH]c2ccccc12)C(=O)N[C@@H](CCSC)C(=O)N[C@@H](CC(=O)O)C(=O)N[C@@H](Cc1ccccc1)C(N)=O [CCK-8, Asp-Tyr-(SO3^-)-Met-Gly-Trp-Met-Asp-Phe-NH2, reference compound] | – | – | 0.129 | – | – | – |
| CCCC[C@@H](C(=O)N[C@@H](CC(=O)O)C(=O)N[C@@H](Cc1ccccc1)C(N)=O)N(C)C(=O)[C@H](Cc1c[nH]c2ccccc12)NC(=O)CNC(=O)[C@H](CCCC)N(C)C(=O)[C@H](Cc1ccc(O)cc1)NC(=O)[C@@H](N)CC(=O)O [Compound 2, H-Asp-Tyr-N-MeNle-Gly-Trp-N-MeNle-Asp-Phe-NH2] | 0.131 | 7,863 | 1030 | 4146 | 0.23 | 0.958 |
| CCCC[C@@H](C(=O)N[C@@H](CC(=O)O)C(=O)N[C@@H](Cc1ccccc1)C(N)=O)N(C)C(=O)[C@H](Cc1c[nH]c2ccccc12)NC(=O)CN [Compound 1, H-Gly-Trp-N-MeNle-Asp-Phe-NH2] (H-GW[NMeNle]DF-NH2) | 4.67 | – | > 10000 | – | – | 8 |
| CCCC[C@@H](C(=O)N[C@@H](CC(=O)O)C(=O)N[C@@H](Cc1ccccc1)C(N)=O)N(C)C(=O)[C@H](Cc1c[nH]c2ccccc12)NC(=O)CNC(=O)[C@H](CCCC)N(C)C(=O)[C@H](Cc1ccc(OS(=O)(=O)O)cc1)NC(=O)[C@H](CC(=O)O)NS(=O)(=O)O [Compound 3, H-Asp-Tyr-N-MeNle-Gly-Trp-N-MeNle-Asp-Phe-NH2 Bis-SO3^θ] (X1-[sY][NMeNle]GW[NMeNle]DF-NH2; N-terminus assumed) | 1.41 | 0.29 | 0.46 | – | – | – |

Next, values leading:

| IC50 [1] [nM] | Ratio Pancreas/Brain Rat [1] | IC50 [2] [nM] | Ratio Pancreas/Brain (Guinea Pig) [3] | IC50 [3] [nM] | IC50 [4] [µM] | Compound |
| --- | --- | --- | --- | --- | --- | --- |
| 1.26 | 413 | 521 | – | – | – | CCCC[C@H](NC(=O)[C@H](Cc1c[nH]c2ccccc12)NC(=O)CNC(=O)[C@H](NC(=O)[C@H](Cc1ccc(O)cc1)NC(=O)[C@@H](N)CC(=O)O)C(C)C)C(=O)N[C@@H](CC(=O)O)C(=O)N[C@@H](Cc1ccccc1)C(N)=O [Compound 7, H-Asp-Tyr-D-Val-Gly-Trp-Nle-Asp-Phe-NH2] |
| – | 39.5 | – | – | – | – | CCCC[C@H](NC(=O)[C@H](Cc1c[nH]c2ccccc12)NC(=O)CNC(=O)[C@H](NC(=O)[C@H](Cc1ccc(OS(=O)(=O)O)cc1)NC(=O)[C@H](CC(=O)O)NS(=O)(=O)O)C(C)C)C(=O)N[C@@H](CC(=O)O)C(=O)N[C@@H](Cc1ccccc1)C(N)=O [Compound 12, H-Asp-Tyr-D-Val-Gly-Trp-Nle-Asp-Phe-NH2 Bis-SO3 θ] (X1-[sY][dV]GW[Nle]DF-NH2; N-terminus and C-terminus assumed) |
| 9.7 | 0.0010 | 0.975 | – | – | – | CCCC[C@H](NC(=O)[C@H](Cc1ccc(O)c(O)c1)NC(=O)[C@@H](N)CC(=O)O)C(=O)NCC(=O)N[C@@H](Cc1c[nH]c2ccccc12)C(=O)N[C@@H](CCCC)C(=O)N[C@@H](CC(=O)O)C(=O)N[C@@H](Cc1ccccc1)C(N)=O [Compound 8, H-Asp-Dopa-Nle-Gly-Trp-Nle-Asp-Phe-NH2] |
| 0.496 | 2.81 | 1.39 | – | – | – | CCCC[C@H](NC(=O)[C@H](Cc1ccc(OS(=O)(=O)O)cc1)NC(=O)[C@H](CC(=O)O)NS(=O)(=O)O)C(=O)NCC(=O)N[C@@H](Cc1c[nH]c2ccccc12)C(=O)N(C)[C@@H](CCCC)C(=O)N[C@@H](CC(=O)O)C(=O)N[C@@H](Cc1ccccc1)C(N)=O [Compound 10, H-Asp-Tyr-Nle-Gly-Trp-N-MeNle-Asp-Phe-NH2 -Bis-SO3θ] (X1-[sY][Nle]GW[NMeNle]DF-NH2; N-terminus assumed) |
| – | 33.46 | – | – | – | – | CCCC[C@H](NC(=O)[C@H](Cc1c[nH]c2ccccc12)NC(=O)CNC(=O)[C@@H](NC(=O)[C@H](Cc1ccc(OS(=O)(=O)O)cc1)NC(=O)[C@H](CC(=O)O)NS(=O)(=O)O)C(C)C)C(=O)N[C@@H](CC(=O)O)C(=O)N[C@@H](Cc1ccccc1)C(N)=O [Compound 11, H-Asp-Tyr-Val-Gly-Trp-Nle-Asp-Phe-NH2 Bis-SO3 θ] (X1-[sY]VGW[Nle]DF-NH2; N-terminus and C-terminus assumed) |
| – | – | – | 9099 | 3.19 | 29.1 | CCCC[C@H](NC(=O)[C@H](Cc1c[nH]c2ccccc12)NC(=O)CNC(=O)[C@H](CCCC)N(C)C(=O)[C@H](Cc1ccc(OS(=O)(=O)O)cc1)NC(=O)[C@H](CC(=O)O)NS(=O)(=O)O)C(=O)N[C@@H](CC(=O)O)C(=O)N[C@@H](Cc1ccccc1)C(N)=O [Compound 9, H-Asp-Tyr-N-MeNle-Gly-Trp-Nle-Asp-Phe-NH2 Bis-SO3 θ] (X1-[sY][NMeNle]GW[Nle]DF-NH2; N-terminus assumed) |
